Experiments:
OVCAR-3 cells = experiment: Combinatorial (checkerboard) cytotoxicity, OVCAR-3; format: cell-based, human; conditions: for Combined FIC Score, OVCAR-3: chemotherapeutic in combination with MAD1, FIC <1 additive, <0.5 synergistic; for synergy with MAD1, OVCAR-3: drug-refractory line, combination with MAD1
From the text: (§1) For combinatorial cytotoxicity experiments, 96 well plates were set up in a checkerboard fashion such that peptide decreased in 1:10 concentration dilutions in one direction and chemotherapeutic decreased in 1:10 concentration dilutions in the orthogonal direction. 2×treatments were combined prior to cell administration for a final 1×concentration to prevent individual treatment effects.

NCI/ADR-RES cells = experiment: Combinatorial (checkerboard) cytotoxicity, NCI/ADR-RES; format: cell-based, human; conditions: for Combined FIC Score, NCl/ADR-RES: chemotherapeutic in combination with MAD1, FIC <1 additive, <0.5 synergistic; for drug potency (IC50) in NCI/ADR-RES on co-treatment with MAD1: in the presence of 20 μM MAD1, compared with OVCAR-3; for synergy with MAD1, NCI/ADR-RES: multidrug resistant line, combination with MAD1
From the text: as §1

P. aeruginosa = conditions: 24 hours, Gram Negative
[1] = tested on: human lung epithelium (NL20); conditions: 48 h
[2] = tested on: A549 (lung carcinoma) cells; experiment: MTT cytotoxicity assay, A549; format: cell-based, human; conditions: for IC50: 48 hours treatment, MTT, read-out: Cancerous (IC50, μM) A549
Experimental: (§2) All cells were cultured using standard culture conditions at 37° C., 5% CO2, and 95% humidity. A549 (CCL-185), OVCAR-3 (HTB-161), T24 (HTB-4), and NCI/ADR-RES were cultured in RPMI-1640 supplemented with 10% v/v fetal bovine serum (FBS), 2 mM L-glutamine (L-Gln), 10,000 units penicillin/mL, 10 mg/mL streptomycin, and 25 μg/mL amphotericin B. HUVEC (PCS-100-010) cells were cultured in Vascular Cell Basal Media (PCS-100-030) supplemented with an Endothelial Cell Growth Kit-VEGF (PCS-100-041) and 10 μg/mL gentamycin in culture flasks coated with 0.1% gelatin by incubating at 37° C. for 15 min. NL20 (CRL-2503) cells were cultured in Ham's F12 supplemented with 1.5 g/L sodium bicarbonate, 2.7 g/L glucose, 2.0 mM L-glutamine, 0.1 mM nonessential amino acids, 0.005 mg/ml insulin, 10 ng/ml epidermal growth factor, 0.001 mg/ml transferrin, 500 ng/ml hydrocortisone and 4% fetal bovine serum, as advised by American Type Culture Collection (ATCC).
(§3) Viability was calculated by comparing to an untreated control.
(§4) All experiments were performed with n>6.
(§5) Cell viability experiments were completed n>6 in two independent experiments and analyzed using GraphPad Prism 8 to fit curves and calculate IC50 values using inhibitor vs. normalized response non-linear regression model. IC50 values are reported as mean values±standard deviation. […] Pore size frequency distribution was completed by ImageJ FIJI on 4 independent cells and n=30 pores from SEM images. UV-Vis OD600 and CD spectra are means of 5 and 3 replicates, respectively and reported as mean±standard deviation. Individual UV-Vis and CD spectra, as well as fluorescent confocal and TEM micrographs, shown are representative plots from three individual experiments. CD data is with a variance in ellipticity of 0.2 millidegrees at each wavelength. Relative fluorescence data calculated from fluorescent confocal images represents the average of 10 independent measurements±standard deviation. For spheroid volume analysis, a Kruskal-Wallis test and Dunn's multiple comparisons test was performed using GraphPad Prism 8.

MS S. aureus = conditions: 24 hours, Gram Positive
[3] = tested on: polymicrobial panel (six bacterial lines); experiment: Antimicrobial activity against polymicrobial panel; format: cell-based; conditions: six bacterial lines
MR S. aureus = conditions: 24 hours, Gram Positive
[4] = tested on: NCI/ADR-RES (drug-resistant ovarian carcinoma) cells; experiment: MTT cytotoxicity assay, NCI/ADR-RES; format: cell-based, human; conditions: for IC50: 48 hours treatment, MTT, read-out: Cancerous (IC50, μM) NCl/ADR-RES
Experimental: as §2, §3, §4, §5

M. tuberculosis = conditions: 24 hours, Mycobacteria
[5] = tested on: OVCAR-3 ovarian carcinoma cells; conditions: for IC50: 48 h
B. subtilis (168) = conditions: 24 hours, Gram Positive
E. coli = conditions: 24 hours, Gram Negative
[6] = tested on: human umbilical vein endothelial cells (HUVEC); conditions: 48 h
[7] = tested on: panel of human cancer cell lines (A549, OVCAR-3, NCI/ADR-RES, T24)
[8] = tested on: T24 (urinary bladder transitional cell carcinoma) cells; conditions: 48 h
[9] = tested on: T24 (urinary bladder transitional cell carcinoma) cells; experiment: MTT cytotoxicity assay, T24; conditions: IC50-HUVEC/IC50-T24
[10] = tested on: non-cancerous cell lines HUVEC and NL20; experiment: MTT cytotoxicity, non-cancerous control cell lines; format: cell-based, human
Experimental: as §2, §3, §4

[11] = Liposome disruption (OD600), normal membrane model
Experimental: (§6) Liposomes were prepared by extrusion techniques according to previous methods. Briefly, all liposomes were prepared in 2×concentration (5 mM). Healthy and cancer liposomal mimicking membranes were prepared with 72:23:[…] phosphatidylcholine (POPC):phosphatidylethanolamine (DOPE):phosphatidylserine (POPS) lipids, respectively. The lipids dissolved in chloroform were mixed in proper molar proportions before being evaporated under a stream of argon. The lipid film was then dried completely by lyophilization overnight. […] The extruded liposomes were then dialyzed in 3500 MWCO dialysis cassettes against water. Parallel optical density experiments were conducted measuring the absorbance at 600 nm (OD600) to track the kinetics and specificity of membrane disruption. Measurements were taken every 30 seconds for the first 10 min., followed by measurements every minute until 15 min.

[12] = Liposome disruption (OD600), cancer membrane model; conditions: OD600 and visual flocculates
Experimental: as §6

[13] = tested on: patient-derived tumor cell spheroids (EOC15, 17, 19); experiment: Ex vivo 3D tumor spheroid culture; format: cell-based, human
Experimental: EOC patient-derived cells were cultured in 1:1 MCDB-105: M199 supplemented with 10% FBS and 1% penicillin-streptomycin. EOC patient-derived cells were provided by Dr. Katherine M. Aird under an Institutional Review Board-approved protocol. EOC patient-derived cells were collected from patient ascites fluid after paracentesis procedures. Cells were routinely tested for mycoplasma as previously described. […] Spheroid length and width was calculated using ImageJ. Spheroid volume was calculated using the following equation […] Statistical Methods […] IC50 values are reported as mean values±standard deviation. […] Pore size frequency distribution was completed by ImageJ FIJI on 4 independent cells and n=30 pores from SEM images. […] Individual UV-Vis and CD spectra, as well as fluorescent confocal and TEM micrographs, shown are representative plots from three individual experiments. CD data is with a variance in ellipticity of 0.2 millidegrees at each wavelength. Relative fluorescence data calculated from fluorescent confocal images represents the average of 10 independent measurements±standard deviation. For spheroid volume analysis, a Kruskal-Wallis test and Dunn's multiple comparisons test was performed using GraphPad Prism 8.

| Compound | Combined FIC Score, OVCAR-3 (OVCAR-3 cells) | synergy with MAD1, OVCAR-3 (OVCAR-3 cells) | Combined FIC Score, NCl/ADR-RES (NCI/ADR-RES cells) | drug potency (IC50) in NCI/ADR-RES on co-treatment with MAD1 (NCI/ADR-RES cells) | synergy with MAD1, NCI/ADR-RES (NCI/ADR-RES cells) | MIC (μM) P. aeruginosa (P. aeruginosa) [µM] | IC50 [1] [µM] | IC50 [2] [µM] | MIC (μM) MS S. aureus (MS S. aureus) [µM] | antimicrobial activity against polymicrobial panel [3] | MIC (μM) MR S. aureus (MR S. aureus) [µM] | IC50 [4] [µM] | MIC (μM) M. tuberculosis (M. tuberculosis) [µM] | IC50 [5] [µM] | MIC (μM) B. subtilis (168) (B. subtilis (168)) [µM] | MIC (μM) E. coli (E. coli) [µM] | IC50 [6] [µM] | IC50 [8] [µM] | other results |
| --- | --- | --- | --- | --- | --- | --- | --- | --- | --- | --- | --- | --- | --- | --- | --- | --- | --- | --- | --- |
| COc1cccc2c1C(=O)c1c(O)c3c(c(O)c1C2=O)C[C@@](O)(C(=O)CO)C[C@@H]3O[C@H]1C[C@H](N)[C@H](O)[C@H](C)O1 [Dox, Doxorubicin] | 0.33 | potently synergizes | 0.37 | restored the potency | potently synergizes | – | – | – | – | – | – | – | – | – | – | – | – | – | – |
| H-RWGKWFKKNSHLS-NH2 [DAP2] | – | – | – | – | – | >80 | > 100 | > 100 | >80 | inactive | >80 | > 100 | >80 | > 100 | >80 | >80 | > 100 | > 100 | Cancerous (IC50, μM) OVCAR-3 ([5]; 48 hours treatment, MTT): did not achieve an IC50; activity towards all four tumor cell lines tested ([7]; result in words): inactive |
| H-LWKRWVGVWRKWL-NH2 [DAP1] | – | – | – | – | – | 20 | 19 | 11.9 | 7 | bactericidal activity | 5 | 14 | 20 | 8.6 | <0.6 | 10 | 19.5 | 15.3 | Therapeutic Index T24 [9]: 1.3; Therapeutic Index A549 ([2]; IC50-HUVEC/IC50-A549): 1.6; toxicity towards non-cancerous control cell lines [10]: nearly equal toxicity; disruption/interaction with normal (healthy) membrane liposomes [11]: little interaction affinity; Therapeutic Index NCl/ADR-RES ([4]; IC50-HUVEC/IC50-NCI/ADR-RES): 1.4; disruption/lysis of cancer membrane liposomes [12]: does not completely lyse; Therapeutic Index OVCAR-3 ([5]; IC50-HUVEC/IC50-OVCAR-3): 2.3; IC50 [7]: 8.6 to 15.3 µM; therapeutic indices across cell lines ([7]; relative to HUVEC controls): ≤ 2.3 |
| N.N.[Cl][Pt][Cl] [Cis, Cisplatin] | 0.31 | potently synergizes | 0.27 | restored the potency | potently synergizes | – | – | – | – | – | – | – | – | – | – | – | – | – | spheroid size, combination ([13]; 2 μM cisplatin combined with 4 μM MAD1, 48 hours): potent and synergistic anticancer effects; spheroid size, single agent ([13]; 2 μM cisplatin or 4 μM MAD1 alone, 48 hours): minimal reduction in size |
| CC(=O)O[C@H]1C(=O)[C@@]2(C)[C@H]([C@H](OC(=O)c3ccccc3)[C@]3(O)C[C@H](OC(=O)[C@H](O)[C@@H](NC(=O)c4ccccc4)c4ccccc4)C(C)=C1C3(C)C)[C@]1(OC(C)=O)CO[C@@H]1C[C@@H]2O [Ptx, Paclitaxel] | – | – | 0.27 | – | potently synergizes | – | – | – | – | – | – | – | – | – | – | – | – | – | – |
